Values of other authors in PMC10705946, “^225Ac-iPSMA-RGD for Alpha-Therapy Dual Targeting of Stromal/Tumor Cell PSMA and Integrins” (International Journal of Molecular Sciences, 2023).
Ends that are not written are not given here.

Test system: glioma cells
Design: method as in PMID 29611298
Conditions: after 24 h of treatment, cells overexpressing the substance P receptor; cited from earlier work

In the case of “^225Ac-labeled substance P: ^225Ac-labeled ligand of the neurokinin-1 receptor (RPKPQQFFGLM; ends and bridges not checked; also: 225Ac radiolabel, attachment not given here; UniProt P20366 58-68, looked up)”, the “Increase of apoptotic cells” value is given as 25%.
